Assay results taken from US6737383B1, “Herbicidal oxadiazolidines” (priority 1999, dated 2004).

Tests used:
bamyardgrass = experiment: Test B flood test barnyardgrass; format: in vivo, Echinochloa crus-galli
Summary of the method: (§1)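 Read-out is a visual response score from 0 (no effect) to 10 (complete control), assigned by comparison with untreated controls. Treatment was applied at the 2-leaf stage, and plants stayed in the greenhouse for twelve to sixteen days before scoring.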

crabgrass = experiment: Test B pre/postemergence crabgrass; format: in vivo, Digitaria sanguinalis
Summary of the method: (§2)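 Response is a visual 0-to-10 score relative to untreated plants, where 0 means no effect and 10 means complete control, taken twelve to sixteen days after application. Treatments went onto soil at planting and onto foliage of 1- to 4-leaf plants, using a surfactant-containing non-phytotoxic solvent.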

soybean = experiment: Test B pre/postemergence soybean; format: in vivo, Glycine max; conditions: for Plant response rating, Soybean: scale of 0 to 10 where 0 is no effect and 10 is complete control
Summary of the method: as §2

blackgrass = experiment: Test B pre/postemergence blackgrass; format: in vivo, Alopecurus myosuroides
Summary of the method: as §2

sugar beet = experiment: Test B pre/postemergence sugar beet; format: in vivo, Beta vulgaris; conditions: for Plant response rating, Sugarbeets: scale of 0 to 10 where 0 is no effect and 10 is complete control
Summary of the method: as §2

surinam grass = experiment: Test B pre/postemergence surinam grass; format: in vivo, Brachiaria decumbens
Summary of the method: as §2

wild oat = experiment: Test B pre/postemergence wild oat; format: in vivo, Avena fatua; conditions: for Plant response rating, Wild oats: scale of 0 to 10 where 0 is no effect and 10 is complete control
Summary of the method: as §2

cocklebur = experiment: Test B pre/postemergence cocklebur; format: in vivo, Xanthium strumarium
Summary of the method: as §2

bedstraw = experiment: Test B pre/postemergence bedstraw; format: in vivo, Galium aparine; conditions: Postemergence
Summary of the method: as §2

purple nutsedge = experiment: Test B pre/postemergence purple nutsedge; format: in vivo, Cyperus rotundus; conditions: for Plant response rating, Nutsedge: scale of 0 to 10 where 0 is no effect and 10 is complete control
Summary of the method: as §2

rape = experiment: Test B pre/postemergence rape; format: in vivo, Brassica napus; conditions: for Plant response rating, Rape: scale of 0 to 10 where 0 is no effect and 10 is complete control
Summary of the method: as §2

wheat = experiment: Test B pre/postemergence wheat; format: in vivo, Triticum aestivum; conditions: for Plant response rating, Wheat: scale of 0 to 10 where 0 is no effect and 10 is complete control
Summary of the method: as §2

pigweed = experiment: Test B pre/postemergence pigweed; format: in vivo, Amaranthus retroflexus
Summary of the method: as §2

smallflower flatsedge = experiment: Test B flood test smallflower flatsedge; format: in vivo, Cyperus difformis
Summary of the method: as §1

velvetleaf = experiment: Test B pre/postemergence velvetleaf; format: in vivo, Abutilon theophrasti; conditions: for Plant response rating, Velvetleaf: scale of 0 to 10 where 0 is no effect and 10 is complete control
Summary of the method: as §2

corn = experiment: Test B pre/postemergence corn; format: in vivo, Zea mays
Summary of the method: as §2

[1] = Rate 62 g/ha, flood test species, Pre-emergence, visual evaluation after twelve to sixteen days
[2] = Rate 125 g/ha, under heading Pre-emergence, flood test species, visual evaluation after twelve to sixteen days
[3] = Rate 250 g/ha, Pre-emergence (flood test species), scale 0 to 10, 0 is no effect, 10 is complete control
[4] = Rate 500 g/ha, Pre-emergence, flood test species, scale 0 to 10 (0 no effect, 10 complete control)
[5] = Postemergence, Rate 250 g/ha, scale 0 to 10
[6] = Postemergence, Rate 500 g/ha, scale of 0 to 10 where 0 is no effect and 10 is complete control
[7] = Preemergence, Rate 62 g/ha, scale of 0 to 10 where 0 is no effect and 10 is complete control
[8] = Preemergence, Rate 125 g/ha, scale of 0 to 10 where 0 is no effect and 10 is complete control
[9] = Preemergence, Rate 250 g/ha, scale 0 to 10, 0 is no effect, 10 is complete control
[10] = Preemergence, Rate 500 g/ha, scale 0 to 10, 0 is no effect, 10 is complete control
[11] = Rate 62 g/ha, Postemergence, scale 0 to 10 (0 no effect, 10 complete control)
[12] = Rate 125 g/ha, Postemergence, scale 0 to 10, 0 is no effect, 10 is complete control

CC(C)N(C(=O)n1oc(=O)n(C(C)C(=O)N(C)C)c1=O)c1ccc(Cl)cc1 (centres unmarked) [Compound 480]
Plant response rating, Barnyardgrass (0 to 10 scale, 0 is no effect, 10 is complete control) (bamyardgrass; [1]): 0
Barnyardgrass plant response rating (0 to 10 scale, 0 is no effect, 10 is complete control) (bamyardgrass; [2]): 0
Barnyardgrass plant response rating (bamyardgrass; [3]): 0
Barnyardgrass plant response rating (bamyardgrass; [4]): 0
Crabgrass plant response rating (crabgrass; [5]): 7
Crabgrass plant response rating (crabgrass; [6]): 8
Plant response rating, Crabgrass (crabgrass; [7]): 7
Plant response rating, Crabgrass (crabgrass; [8]): 8
Crabgrass plant response rating (crabgrass; [9]): 8
Crabgrass plant response rating (crabgrass; [10]): 10
Crabgrass plant response rating (crabgrass; [11]): 2
Crabgrass plant response rating (crabgrass; [12]): 6
Soybean plant response rating (soybean; [5]): 3
Plant response rating, Soybean (soybean; Preemergence, Rate 62 g/ha): 0
Plant response rating, Soybean (soybean; Preemergence, Rate 125 g/ha): 0
Soybean plant response rating (soybean; [9]): 0
Soybean plant response rating (soybean; [10]): 1
Soybean plant response rating (soybean; [11]): 2
Soybean plant response rating (soybean; [12]): 3
Blackgrass plant response rating (blackgrass; [5]): 3
Blackgrass plant response rating (blackgrass; [6]): 8
Plant response rating, Blackgrass (blackgrass; [7]): 3
Plant response rating, Blackgrass (blackgrass; [8]): 5
Blackgrass plant response rating (blackgrass; [9]): 8
Blackgrass plant response rating (blackgrass; [10]): 9
Blackgrass plant response rating (blackgrass; [11]): 0
Blackgrass plant response rating (blackgrass; [12]): 3
Sugarbeets plant response rating (sugar beet; [5]): 0
Plant response rating, Sugarbeets (sugar beet; Preemergence, Rate 62 g/ha): 0
Plant response rating, Sugarbeets (sugar beet; Preemergence, Rate 125 g/ha): 0
Sugarbeets plant response rating (sugar beet; [9]): 0
Sugarbeets plant response rating (sugar beet; [10]): 0
Sugarbeets plant response rating (sugar beet; [11]): 0
Sugarbeets plant response rating (sugar beet; [12]): 0
B. signalgrass plant response rating (surinam grass; Postemergence, Rate 250 g/ha, scale 0 to 10, 0 no effect, 10 complete control): 5
B. signalgrass plant response rating (surinam grass; [6]): 6
Plant response rating, B. signalgrass (surinam grass; [7]): 0
Plant response rating, B. signalgrass (surinam grass; [8]): 4
B. signalgrass plant response rating (surinam grass; [9]): 7
B. signalgrass plant response rating (surinam grass; [10]): 9
B. signalgrass plant response rating (surinam grass; [11]): 0
B. signalgrass plant response rating (surinam grass; [12]): 3
Wild oats plant response rating (wild oat; [5]): 0
Plant response rating, Wild oats (wild oat; Preemergence, Rate 62 g/ha): 0
Plant response rating, Wild oats (wild oat; Preemergence, Rate 125 g/ha): 2
Wild oats plant response rating (wild oat; [9]): 4
Wild oats plant response rating (wild oat; [10]): 7
Wild oats plant response rating (wild oat; [11]): 0
Wild oats plant response rating (wild oat; [12]): 0
Cocklebur plant response rating (cocklebur; [5]): 0
Cocklebur plant response rating (cocklebur; [6]): 1
Plant response rating, Cocklebur (cocklebur; [7]): 0
Plant response rating, Cocklebur (cocklebur; [8]): 0
Cocklebur plant response rating (cocklebur; [9]): 0
Cocklebur plant response rating (cocklebur; [10]): 0
Cocklebur plant response rating (cocklebur; [11]): 0
Cocklebur plant response rating (cocklebur; [12]): 0
Bedstraw plant response rating (bedstraw; Rate 250 g/ha, scale 0 to 10): 0
Bedstraw plant response rating (bedstraw; Rate 500 g/ha, scale of 0 to 10 where 0 is no effect and 10 is complete control): 0
Bedstraw plant response rating (bedstraw; Rate 62 g/ha, scale 0 to 10 (0 no effect, 10 complete control)): 0
Bedstraw plant response rating (bedstraw; Rate 125 g/ha, scale 0 to 10, 0 is no effect, 10 is complete control): 0
Nutsedge plant response rating (purple nutsedge; [5]): 0
Plant response rating, Nutsedge (purple nutsedge; Preemergence, Rate 62 g/ha): 0
Plant response rating, Nutsedge (purple nutsedge; Preemergence, Rate 125 g/ha): 0
Nutsedge plant response rating (purple nutsedge; [9]): 0
Nutsedge plant response rating (purple nutsedge; [10]): 0
Nutsedge plant response rating (purple nutsedge; [11]): 0
Nutsedge plant response rating (purple nutsedge; [12]): 0
Rape plant response rating (rape; [5]): 0
Plant response rating, Rape (rape; Preemergence, Rate 62 g/ha): 0
Plant response rating, Rape (rape; Preemergence, Rate 125 g/ha): 0
Rape plant response rating (rape; [9]): 0
Rape plant response rating (rape; [10]): 0
Rape plant response rating (rape; [11]): 0
Rape plant response rating (rape; [12]): 0
Wheat plant response rating (wheat; [5]): 0
Plant response rating, Wheat (wheat; Preemergence, Rate 62 g/ha): 0
Plant response rating, Wheat (wheat; Preemergence, Rate 125 g/ha): 0
Wheat plant response rating (wheat; [9]): 0
Wheat plant response rating (wheat; [10]): 2
Wheat plant response rating (wheat; [11]): 0
Wheat plant response rating (wheat; [12]): 0
Redroot pigweed plant response rating (pigweed; [5]): 1
Plant response rating, Redroot pigweed (pigweed; [7]): 2
Redroot pigweed plant response rating (pigweed; [9]): 8
Redroot pigweed plant response rating (pigweed; [10]): 9
Redroot pigweed plant response rating (pigweed; [11]): 0
Redroot pigweed plant response rating (pigweed; [12]): 0
Plant response rating, S. Flatsedge (0 to 10 scale, 0 is no effect, 10 is complete control) (smallflower flatsedge; [1]): 0
S. Flatsedge plant response rating (0 to 10 scale, 0 is no effect, 10 is complete control) (smallflower flatsedge; [2]): 0
S. Flatsedge plant response rating (smallflower flatsedge; [3]): 0
S. Flatsedge plant response rating (smallflower flatsedge; [4]): 0
Velvetleaf plant response rating (velvetleaf; [5]): 0
Plant response rating, Velvetleaf (velvetleaf; Preemergence, Rate 62 g/ha): 0
Plant response rating, Velvetleaf (velvetleaf; Preemergence, Rate 125 g/ha): 0
Velvetleaf plant response rating (velvetleaf; [9]): 0
Velvetleaf plant response rating (velvetleaf; [10]): 0
Velvetleaf plant response rating (velvetleaf; [11]): 0
Velvetleaf plant response rating (velvetleaf; [12]): 0
Corn plant response rating (corn; [5]): 0
Corn plant response rating (corn; [6]): 2
Plant response rating, Corn (corn; [7]): 0
Plant response rating, Corn (corn; [8]): 0
Corn plant response rating (corn; [9]): 0
Corn plant response rating (corn; [10]): 3
Corn plant response rating (corn; [11]): 0
Corn plant response rating (corn; [12]): 0
